Key:
[1] = biological target: GABA-A receptor; anion channel (Rattus norvegicus) (UniProt O09028+P15431+P18506+P18508+P19969+P20236+P23574+P23576+P28471+P28473+P30191+P62813+P63079+P63138+Q91ZM7+Q9ES14); conditions: Compound concentration 10.0 uM
[2] = biological target: Dual specificity tyrosine-phosphorylation-regulated kinase 2 (Homo sapiens) (UniProt Q92630); conditions: Compound concentration 100.0 nM
[3] = biological target: Calcium/calmodulin-dependent protein kinase type II subunit beta (Homo sapiens) (UniProt Q13554); conditions: Compound concentration 100.0 nM
[4] = system: Epidermal growth factor receptor (Homo sapiens), P00533 [L861Q]; conditions: Compound concentration 100.0 nM
[5] = biological target: Serine/threonine-protein kinase mTOR (Homo sapiens) (UniProt P42345); conditions: Compound concentration 100.0 nM
[6] = biological target: Dual specificity tyrosine-phosphorylation-regulated kinase 1A (Homo sapiens) (UniProt Q13627); conditions: Compound concentration 100.0 nM
[7] = biological target: Serine/threonine-protein kinase WNK3 (Homo sapiens) (UniProt Q9BYP7); conditions: Compound concentration 100.0 nM
Serine/threonine-protein kinase WNK3 (Homo sapiens), sequence (Q9BYP7 whole entry): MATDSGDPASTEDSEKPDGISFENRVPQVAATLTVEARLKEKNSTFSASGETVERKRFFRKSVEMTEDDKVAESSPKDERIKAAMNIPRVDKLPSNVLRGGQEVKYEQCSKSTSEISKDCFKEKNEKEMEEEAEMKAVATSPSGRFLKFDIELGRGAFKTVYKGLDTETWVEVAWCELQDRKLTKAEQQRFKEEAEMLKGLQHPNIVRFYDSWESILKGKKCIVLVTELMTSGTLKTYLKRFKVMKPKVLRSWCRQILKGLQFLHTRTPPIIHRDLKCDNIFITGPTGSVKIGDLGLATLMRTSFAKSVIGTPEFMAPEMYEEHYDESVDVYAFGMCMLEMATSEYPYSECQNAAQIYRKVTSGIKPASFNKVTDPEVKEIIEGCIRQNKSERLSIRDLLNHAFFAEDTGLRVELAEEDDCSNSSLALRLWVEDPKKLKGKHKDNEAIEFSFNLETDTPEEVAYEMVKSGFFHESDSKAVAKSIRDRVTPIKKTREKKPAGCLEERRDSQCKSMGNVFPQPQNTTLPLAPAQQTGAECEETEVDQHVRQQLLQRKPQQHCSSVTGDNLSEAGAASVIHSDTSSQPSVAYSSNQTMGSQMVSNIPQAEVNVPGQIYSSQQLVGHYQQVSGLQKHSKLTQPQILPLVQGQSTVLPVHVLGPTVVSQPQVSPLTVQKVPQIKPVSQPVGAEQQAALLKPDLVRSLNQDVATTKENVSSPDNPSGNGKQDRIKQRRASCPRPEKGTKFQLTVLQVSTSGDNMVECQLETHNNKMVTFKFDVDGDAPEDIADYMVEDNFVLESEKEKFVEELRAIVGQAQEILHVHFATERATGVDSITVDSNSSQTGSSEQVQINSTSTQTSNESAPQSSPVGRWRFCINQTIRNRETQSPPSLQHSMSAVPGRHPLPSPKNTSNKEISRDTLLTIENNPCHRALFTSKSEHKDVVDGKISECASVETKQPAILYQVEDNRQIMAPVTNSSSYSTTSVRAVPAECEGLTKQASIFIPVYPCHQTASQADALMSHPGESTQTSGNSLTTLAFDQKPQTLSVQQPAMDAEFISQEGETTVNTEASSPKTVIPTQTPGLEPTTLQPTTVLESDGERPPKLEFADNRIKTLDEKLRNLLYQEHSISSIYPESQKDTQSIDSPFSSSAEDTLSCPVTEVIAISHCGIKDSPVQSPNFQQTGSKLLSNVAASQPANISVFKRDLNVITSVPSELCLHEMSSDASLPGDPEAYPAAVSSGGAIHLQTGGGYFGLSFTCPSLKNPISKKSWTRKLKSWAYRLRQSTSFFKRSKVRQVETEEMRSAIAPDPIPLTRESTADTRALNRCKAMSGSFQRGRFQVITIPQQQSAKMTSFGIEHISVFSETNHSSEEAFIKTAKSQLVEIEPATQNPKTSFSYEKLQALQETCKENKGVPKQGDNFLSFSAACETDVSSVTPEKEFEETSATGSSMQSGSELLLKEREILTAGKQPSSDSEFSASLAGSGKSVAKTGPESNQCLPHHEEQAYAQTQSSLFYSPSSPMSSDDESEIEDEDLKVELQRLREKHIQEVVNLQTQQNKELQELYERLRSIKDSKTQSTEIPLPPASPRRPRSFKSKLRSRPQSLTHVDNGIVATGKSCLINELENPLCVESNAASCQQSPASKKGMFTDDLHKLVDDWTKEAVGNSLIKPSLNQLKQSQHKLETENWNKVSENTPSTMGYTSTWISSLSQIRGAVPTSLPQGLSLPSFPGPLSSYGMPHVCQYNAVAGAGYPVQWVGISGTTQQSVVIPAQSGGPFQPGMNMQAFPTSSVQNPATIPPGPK

[8] = biological target: Activin receptor type-1B (Homo sapiens) (UniProt P36896); conditions: Compound concentration 100.0 nM
[9] = biological target: Ribosomal protein S6 kinase alpha-3 (Homo sapiens) (UniProt P51812); conditions: Compound concentration 100.0 nM
Ribosomal protein S6 kinase alpha-3 (Homo sapiens), sequence (P51812 whole entry): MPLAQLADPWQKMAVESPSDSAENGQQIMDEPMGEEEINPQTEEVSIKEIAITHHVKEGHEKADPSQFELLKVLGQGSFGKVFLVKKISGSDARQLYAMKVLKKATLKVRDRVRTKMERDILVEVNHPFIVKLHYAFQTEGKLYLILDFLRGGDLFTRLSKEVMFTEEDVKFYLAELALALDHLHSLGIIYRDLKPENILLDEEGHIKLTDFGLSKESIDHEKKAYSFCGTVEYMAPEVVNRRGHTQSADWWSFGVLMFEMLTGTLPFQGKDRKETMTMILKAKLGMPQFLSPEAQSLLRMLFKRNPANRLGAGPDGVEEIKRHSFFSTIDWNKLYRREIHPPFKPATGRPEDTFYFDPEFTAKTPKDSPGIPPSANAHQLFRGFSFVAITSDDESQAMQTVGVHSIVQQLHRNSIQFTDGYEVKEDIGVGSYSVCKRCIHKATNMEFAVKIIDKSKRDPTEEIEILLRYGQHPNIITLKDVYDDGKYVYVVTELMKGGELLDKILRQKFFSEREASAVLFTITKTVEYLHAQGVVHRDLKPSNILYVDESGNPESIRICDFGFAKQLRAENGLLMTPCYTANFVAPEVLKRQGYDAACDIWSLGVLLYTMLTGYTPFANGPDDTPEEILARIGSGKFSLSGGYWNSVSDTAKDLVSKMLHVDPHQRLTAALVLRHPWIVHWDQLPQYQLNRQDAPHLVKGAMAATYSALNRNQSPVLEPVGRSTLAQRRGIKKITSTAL

[10] = biological target: Serine/threonine-protein kinase RIO2 (Homo sapiens) (UniProt Q9BVS4); conditions: Compound concentration 100.0 nM
[11] = system: Phosphatidylinositol 4,5-bisphosphate 3-kinase catalytic subunit alpha isoform (Homo sapiens), P42336 [H1047L]; conditions: Compound concentration 100.0 nM
[12] = biological target: Serine/threonine-protein kinase Nek3 (Homo sapiens) (UniProt P51956); conditions: Compound concentration 100.0 nM
[13] = biological target: Mitogen-activated protein kinase 14 (Homo sapiens) (UniProt Q16539); conditions: Compound concentration 100.0 nM
[14] = system: Phosphatidylinositol 4,5-bisphosphate 3-kinase catalytic subunit alpha isoform (Homo sapiens), P42336 [E545A]; conditions: Compound concentration 100.0 nM
[15] = system: Tyrosine-protein kinase ABL1 (Homo sapiens), P00519 [M351T]; conditions: Compound concentration 100.0 nM
[16] = system: Epidermal growth factor receptor (Homo sapiens), P00533 [UNDEFINED MUTATION]; conditions: Compound concentration 100.0 nM
[17] = biological target: Tyrosine-protein kinase JAK1 (Homo sapiens) (UniProt P23458); conditions: Compound concentration 100.0 nM
[18] = biological target: Atypical kinase COQ8B, mitochondrial (Homo sapiens) (UniProt Q96D53); conditions: Compound concentration 100.0 nM
Atypical kinase COQ8B, mitochondrial (Homo sapiens), sequence (Q96D53 whole entry): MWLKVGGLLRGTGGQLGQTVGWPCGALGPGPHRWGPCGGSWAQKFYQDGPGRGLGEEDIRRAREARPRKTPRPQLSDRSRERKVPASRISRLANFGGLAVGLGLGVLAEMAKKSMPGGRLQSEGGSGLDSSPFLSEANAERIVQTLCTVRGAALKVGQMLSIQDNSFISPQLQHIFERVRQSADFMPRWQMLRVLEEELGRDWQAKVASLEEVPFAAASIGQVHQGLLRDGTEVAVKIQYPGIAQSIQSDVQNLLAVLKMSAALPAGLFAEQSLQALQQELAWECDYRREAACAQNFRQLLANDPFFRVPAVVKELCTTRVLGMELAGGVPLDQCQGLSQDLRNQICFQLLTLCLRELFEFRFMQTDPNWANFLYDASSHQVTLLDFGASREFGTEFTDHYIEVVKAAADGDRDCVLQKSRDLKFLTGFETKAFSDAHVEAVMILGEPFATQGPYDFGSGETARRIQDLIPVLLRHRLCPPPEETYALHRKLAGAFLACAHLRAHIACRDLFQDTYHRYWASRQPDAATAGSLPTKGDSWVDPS

[19] = biological target: Serine/threonine-protein kinase Nek10 (Homo sapiens) (UniProt Q6ZWH5); conditions: Compound concentration 100.0 nM
[20] = biological target: Serine/threonine-protein kinase pim-1 (Homo sapiens) (UniProt P11309); conditions: Compound concentration 100.0 nM
[21] = biological target: Dual specificity mitogen-activated protein kinase kinase 1 (Homo sapiens) (UniProt Q02750); conditions: Compound concentration 100.0 nM
[22] = biological target: Cyclin-dependent kinase 14 (Homo sapiens) (UniProt O94921); conditions: Compound concentration 100.0 nM
[23] = biological target: Casein kinase I isoform gamma-3 (Homo sapiens) (UniProt Q9Y6M4); conditions: Compound concentration 100.0 nM
[24] = biological target: Serine/threonine-protein kinase Nek11 (Homo sapiens) (UniProt Q8NG66); conditions: Compound concentration 100.0 nM
[25] = system: Receptor-type tyrosine-protein kinase FLT3 (Homo sapiens), P36888 [R834Q]; conditions: Compound concentration 100.0 nM
[26] = biological target: Casein kinase I isoform alpha-like (Homo sapiens) (UniProt Q8N752); conditions: Compound concentration 100.0 nM
[27] = biological target: Protein kinase C eta type (Homo sapiens) (UniProt P24723); conditions: Compound concentration 100.0 nM
[28] = biological target: Mitogen-activated protein kinase 4 (Homo sapiens) (UniProt P31152); conditions: Compound concentration 100.0 nM
Mitogen-activated protein kinase 4 (Homo sapiens), sequence (P31152 whole entry): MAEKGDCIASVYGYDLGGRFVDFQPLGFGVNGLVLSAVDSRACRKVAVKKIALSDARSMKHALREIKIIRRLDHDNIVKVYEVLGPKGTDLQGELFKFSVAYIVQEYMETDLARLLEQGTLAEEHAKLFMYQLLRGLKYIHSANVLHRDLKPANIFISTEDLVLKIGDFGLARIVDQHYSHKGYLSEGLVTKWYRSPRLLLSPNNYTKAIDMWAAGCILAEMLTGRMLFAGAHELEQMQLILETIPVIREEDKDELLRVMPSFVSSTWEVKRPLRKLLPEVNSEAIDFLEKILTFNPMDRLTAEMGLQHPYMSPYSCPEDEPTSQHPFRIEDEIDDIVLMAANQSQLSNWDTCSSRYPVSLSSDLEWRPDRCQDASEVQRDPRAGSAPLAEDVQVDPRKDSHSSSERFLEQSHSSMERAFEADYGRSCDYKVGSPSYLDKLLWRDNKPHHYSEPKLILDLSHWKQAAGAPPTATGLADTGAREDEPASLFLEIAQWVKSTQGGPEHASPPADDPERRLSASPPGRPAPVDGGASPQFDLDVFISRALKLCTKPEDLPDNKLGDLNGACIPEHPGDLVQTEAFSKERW

[29] = biological target: Serine/threonine-protein kinase Sgk3 (Homo sapiens) (UniProt Q96BR1); conditions: Compound concentration 100.0 nM
Serine/threonine-protein kinase Sgk3 (Homo sapiens), sequence (Q96BR1 whole entry): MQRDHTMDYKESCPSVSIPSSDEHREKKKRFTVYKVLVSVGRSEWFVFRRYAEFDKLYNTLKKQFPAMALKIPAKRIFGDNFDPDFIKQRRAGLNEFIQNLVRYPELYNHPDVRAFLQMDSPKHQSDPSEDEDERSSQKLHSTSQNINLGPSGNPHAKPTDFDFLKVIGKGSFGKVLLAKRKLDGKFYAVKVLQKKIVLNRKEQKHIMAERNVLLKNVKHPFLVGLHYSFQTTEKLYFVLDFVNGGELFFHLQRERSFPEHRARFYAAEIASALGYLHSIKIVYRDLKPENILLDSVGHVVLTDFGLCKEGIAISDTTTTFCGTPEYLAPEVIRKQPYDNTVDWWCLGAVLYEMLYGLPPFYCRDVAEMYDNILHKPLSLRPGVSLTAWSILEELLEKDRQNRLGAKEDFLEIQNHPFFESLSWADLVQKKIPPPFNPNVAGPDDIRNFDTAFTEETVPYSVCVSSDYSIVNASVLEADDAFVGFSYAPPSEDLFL

[30] = biological target: Ephrin type-A receptor 1 (Homo sapiens) (UniProt P21709); conditions: Compound concentration 100.0 nM
[31] = biological target: Serine/threonine-protein kinase TAO2 (Homo sapiens) (UniProt Q9UL54); conditions: Compound concentration 100.0 nM
[32] = biological target: Serine/threonine-protein kinase BRSK1 (Homo sapiens) (UniProt Q8TDC3); conditions: Compound concentration 100.0 nM
[33] = biological target: Bone morphogenetic protein receptor type-1B (Homo sapiens) (UniProt O00238); conditions: Compound concentration 100.0 nM
[34] = biological target: Serine/threonine-protein kinase B-raf (Homo sapiens) (UniProt P15056); conditions: Compound concentration 100.0 nM
[35] = system: Phosphatidylinositol 4,5-bisphosphate 3-kinase catalytic subunit alpha isoform (Homo sapiens), P42336 [E542K]; conditions: Compound concentration 100.0 nM
[36] = biological target: Tyrosine-protein kinase Fes/Fps (Homo sapiens) (UniProt P07332); conditions: Compound concentration 100.0 nM
[37] = biological target: Bone morphogenetic protein receptor type-2 (Homo sapiens) (UniProt Q13873); conditions: Compound concentration 100.0 nM
[38] = biological target: ALK tyrosine kinase receptor (Homo sapiens) (UniProt Q9UM73); conditions: Compound concentration 100.0 nM
[39] = biological target: Serine/threonine-protein kinase MARK2 (Homo sapiens) (UniProt Q7KZI7); conditions: Compound concentration 100.0 nM
[40] = system: Mast/stem cell growth factor receptor Kit (Homo sapiens), P10721 [V559D,T670I]; conditions: Compound concentration 100.0 nM
[41] = biological target: Interferon-induced, double-stranded RNA-activated protein kinase (Homo sapiens) (UniProt P19525); conditions: Compound concentration 100.0 nM
[42] = biological target: Vascular endothelial growth factor receptor 3 (Homo sapiens) (UniProt P35916); conditions: Compound concentration 100.0 nM
[43] = biological target: BDNF/NT-3 growth factors receptor (Homo sapiens) (UniProt Q16620); conditions: Compound concentration 100.0 nM
BDNF/NT-3 growth factors receptor (Homo sapiens), sequence (Q16620 32-822 limits assumed): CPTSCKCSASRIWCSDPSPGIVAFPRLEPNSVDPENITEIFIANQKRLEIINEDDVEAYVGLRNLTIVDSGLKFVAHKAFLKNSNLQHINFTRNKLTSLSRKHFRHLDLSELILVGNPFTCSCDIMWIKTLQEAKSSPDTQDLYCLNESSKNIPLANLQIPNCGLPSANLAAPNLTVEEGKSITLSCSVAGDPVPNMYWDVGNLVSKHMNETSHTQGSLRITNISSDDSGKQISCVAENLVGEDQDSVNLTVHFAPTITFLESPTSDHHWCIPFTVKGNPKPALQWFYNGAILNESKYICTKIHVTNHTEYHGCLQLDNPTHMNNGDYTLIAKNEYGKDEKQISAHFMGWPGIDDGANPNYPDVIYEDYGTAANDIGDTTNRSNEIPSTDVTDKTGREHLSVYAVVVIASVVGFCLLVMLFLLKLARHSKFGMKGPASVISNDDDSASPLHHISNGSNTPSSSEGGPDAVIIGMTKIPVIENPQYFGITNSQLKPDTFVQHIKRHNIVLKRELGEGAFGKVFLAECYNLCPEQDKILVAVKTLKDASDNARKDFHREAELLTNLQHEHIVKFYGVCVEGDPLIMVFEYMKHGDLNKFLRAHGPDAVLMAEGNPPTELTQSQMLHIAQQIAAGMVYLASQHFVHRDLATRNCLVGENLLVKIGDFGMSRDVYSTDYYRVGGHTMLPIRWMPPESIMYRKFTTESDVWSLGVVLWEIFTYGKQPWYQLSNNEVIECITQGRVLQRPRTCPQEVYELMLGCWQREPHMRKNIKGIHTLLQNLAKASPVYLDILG

Cc1ccc(-c2cnc([C@@]3(O)CC[C@H](C(=O)O)C(C)(C)C3)s2)cc1Nc1cccc(C(F)(F)F)n1 [MRL-SYKi-NC]
inhibition [1]: 19%
residual activity [2]: 82.4%
residual activity [3]: 95.3%
residual activity [4]: 98.5%
residual activity [5]: 84.6%
residual activity [6]: 81.4%
residual activity [7]: 0%
residual activity [8]: 100%
residual activity [9]: 73.8%
residual activity [10]: 100%
residual activity [11]: 94.8%
residual activity [12]: 82.8%
residual activity [13]: 97%
residual activity [14]: 74.7%
residual activity [15]: 87%
residual activity [16]: 67.1%
residual activity [17]: 100%
residual activity [18]: 98.7%
residual activity [19]: 97.3%
residual activity [20]: 100%
residual activity [21]: 95%
residual activity [22]: 100%
residual activity [23]: 89.1%
residual activity [24]: 93%
residual activity [25]: 70.5%
residual activity [26]: 91.9%
residual activity [27]: 74.6%
residual activity [28]: 100%
residual activity [29]: 100%
residual activity [30]: 100%
residual activity [31]: 84.7%
residual activity [32]: 100%
residual activity [33]: 92.3%
residual activity [34]: 100%
residual activity [35]: 87.4%
residual activity [36]: 100%
residual activity [37]: 54.9%
residual activity [38]: 100%
residual activity [39]: 100%
residual activity [40]: 99.7%
residual activity [41]: 75.8%
residual activity [42]: 100%
residual activity [43]: 67.2%

Cc1cc(Nc2nccc(C)n2)cc(-c2cnc([C@@]3(O)CC[C@H](C(=O)O)C(C)(C)C3)s2)c1 [MRL-SYKi]
inhibition [1]: 25.9%
residual activity [2]: 100%
residual activity [3]: 100%
residual activity [4]: 100%
residual activity [5]: 77.7%
residual activity [6]: 100%
residual activity [7]: 100%
residual activity [8]: 92.7%
residual activity [9]: 83.4%
residual activity [10]: 83.9%
residual activity [11]: 81.7%
residual activity [12]: 50.7%
residual activity [13]: 100%
residual activity [14]: 72.7%
residual activity [15]: 78.3%
residual activity [16]: 67.7%
residual activity [17]: 100%
residual activity [18]: 99.4%
residual activity [19]: 53.1%
residual activity [20]: 91.7%
residual activity [21]: 100%
residual activity [22]: 100%
residual activity [23]: 99.9%
residual activity [24]: 61.2%
residual activity [25]: 96.3%
residual activity [26]: 100%
residual activity [27]: 97.5%
residual activity [28]: 100%
residual activity [29]: 100%
residual activity [30]: 100%
residual activity [31]: 97.5%
residual activity [32]: 100%
residual activity [33]: 100%
residual activity [34]: 100%
residual activity [35]: 66.5%
residual activity [36]: 100%
residual activity [37]: 100%
residual activity [38]: 93.8%
residual activity [39]: 100%
residual activity [40]: 83.9%
residual activity [41]: 77.4%
residual activity [42]: 91.3%
residual activity [43]: 60.3%
